The subject of the experiment is HSV-2. Briefly: dye uptake method: prevention of HSV-2 cytopathic effect in Vero cells, acyclovir with ribonucleotide reductase inhibitor (Compound A). It counts as cell-based. As to the method:
The ribonucleotide reductase inhibitors of the present invention were shown by use of the dye uptake method described by McLaren, Ellis and Hunter in Antivir. Res. 3, 223-234 (1983) to potentiate the in vitro antiviral effects of acyclovir. Vero cells (20,000 cells/well) were incubated in microtiter wells for 24 hours. Various concentrations of acyclovir and the ribonucleotide reductase inhibitors were added and the cells were infected with 30 infectious particles/well of HSV-1 or HSV-2. After 3 days incubation, the antiviral effects were assessed by determining the prevention of the cytopathic effects of the viruses. Examples of the synergistic antiherpes activity of 2-acetylpyridine (4,5-dihydro-5-thioxo-1,3,4-thiadiazol-2-yl)-hydrazone (Compound A) and acyclovir (ACV) are given below.

Where two headings read alike, the source gives them in different places.

As for `Nc1nc2c(ncn2COCCO)c(=O)[nH]1` [ACV, 9-(2-hydroxyethoxymethyl)guanine, reference compound], the “IC50 Calculated (theoretical value for the additive combined effects of ACV and Compound A)” value (ACV alone) is 5.7 µM. The IC50 (Human alphaherpesvirus 2, Vero, 72 h, read-out: IC50 Observed (concentration of ACV required to inhibit HSC2 replication by 50%)) stood at 5.77 µM.

Take `CC(=NNc1n[nH]c(=S)s1)c1ccccn1` [Compound A, 2-acetylpyridine (4,5-dihydro-5-thioxo-1,3,4-thiadiazol-2-yl)-hydrazone]: the inhibition at 0.4 µM (Human alphaherpesvirus 2, Vero, 0.4 μM Compound A alone, read-out: % inhibition of virus replication by Compound A alone) worked out at 0%. Also, the inhibition at 0.9 µM (Human alphaherpesvirus 2, Vero, 0.9 μM Compound A alone, read-out: % inhibition of virus replication by Compound A alone) stood at 0%. Moreover, the inhibition at 1.3 µM (Human alphaherpesvirus 2, Vero, 1.3 μM Compound A alone, read-out: % inhibition of virus replication by Compound A alone) came out at 21%. For the same compound, the IC50 (Human alphaherpesvirus 2, Vero, read-out: IC50 of Compound A alone (inhibition of virus replication)) worked out at 1.6 µM.

Values taken from patent publication US5393883A, “Antiviral combinations and compounds therefor” (Burroughs Wellcome Co., priority 1988, dated 1995).
